The values that follow come from US9340600B2 (Indiana University Research and Technology Corporation, priority 2012, dated 2016).

*1 amine or outer side, *2 acyl side, *3 side chain or, on linkers, in order; H or OH if unused. Where a SMILES comes first, the peptide text is derived from it. Side-chain parts run from the residue outwards. [ ]: non-standard residue; d: D form. The star is where a group is joined. γGlu = O=C(O)[C@H](CCC(=O)[*:2])N[*:1]; Palmitoyl = CCCCCCCCCCCCCCCC(=O)*; hSer = N[C@@H](CCO)C(=O)O; Nle = CCCC[C@H](N)C(=O)O; Aib = CC(C)(N)C(=O)O

Holding throughout (format): cell-based
In one test the target is T1, glucagon receptor (Homo sapiens, UniProt P47871).
T1 construct: expressed in transfected cells; host or cells: HEK293
Description: cAMP induction, firefly luciferase-based reporter assay in HEK293 cells co-transfected with glucagon receptor. Conditions: for EC50: EC50 at Glucagon Receptor. An excerpt:
(§1) This example describes an exemplary method of testing the biological activity of the peptides of the present disclosures, which method involves assaying cAMP synthesis.

For another test, the target named is T2, GLP-1 receptor (Homo sapiens, UniProt P43220).
T2 construct: expressed in transfected cells; host or cells: HEK293
Kind of test: cAMP induction, firefly luciferase-based reporter assay in HEK293 cells co-transfected with GLP-1 receptor. Conditions: EC50 at GLP-1 Receptor.
Text: as §1
A general note: A reporter such as luciferase makes a cellular process visible.

A further test has as its target T3, GIP receptor (Homo sapiens, UniProt P48546).
T3 construct: expressed in transfected cells; host or cells: HEK293
T3 sequence (P48546 22-466): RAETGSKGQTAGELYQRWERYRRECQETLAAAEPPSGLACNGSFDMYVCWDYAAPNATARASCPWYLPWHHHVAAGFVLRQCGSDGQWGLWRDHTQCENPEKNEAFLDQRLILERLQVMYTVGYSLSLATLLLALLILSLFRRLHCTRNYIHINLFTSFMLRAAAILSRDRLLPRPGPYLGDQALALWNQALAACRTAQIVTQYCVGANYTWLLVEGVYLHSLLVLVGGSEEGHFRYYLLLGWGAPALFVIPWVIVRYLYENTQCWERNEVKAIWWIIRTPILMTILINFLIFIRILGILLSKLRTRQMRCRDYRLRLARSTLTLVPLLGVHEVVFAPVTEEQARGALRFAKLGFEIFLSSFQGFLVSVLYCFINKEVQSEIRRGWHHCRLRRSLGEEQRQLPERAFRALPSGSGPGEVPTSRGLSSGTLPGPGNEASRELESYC
Description: cAMP induction, firefly luciferase-based reporter assay in HEK293 cells co-transfected with GIP receptor. Conditions: EC50 at GIP Receptor.
Text: as §1

[1] abbreviates: Table 3, analogs of SEQ ID NO: 18 varying at position 3.
The mark [2] stands for this setting: Table 4, analogs of SEQ ID NO: 43 varying at position 3.
Where [3] appears, read: Table 5, analogs of SEQ ID NO: 10.

T2 sequence (P43220 24-463): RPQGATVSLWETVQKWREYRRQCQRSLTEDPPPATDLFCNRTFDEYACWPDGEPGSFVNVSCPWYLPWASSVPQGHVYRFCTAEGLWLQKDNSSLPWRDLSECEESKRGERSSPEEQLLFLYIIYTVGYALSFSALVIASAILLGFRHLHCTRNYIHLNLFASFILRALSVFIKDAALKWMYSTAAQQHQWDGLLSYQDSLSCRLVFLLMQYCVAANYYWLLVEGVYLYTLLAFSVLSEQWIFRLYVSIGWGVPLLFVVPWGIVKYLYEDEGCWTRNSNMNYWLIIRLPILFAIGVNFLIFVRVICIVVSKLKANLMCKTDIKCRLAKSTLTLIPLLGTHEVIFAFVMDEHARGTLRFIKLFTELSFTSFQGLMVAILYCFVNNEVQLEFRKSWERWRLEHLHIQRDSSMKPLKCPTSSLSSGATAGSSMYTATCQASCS
T1 sequence (P47871 26-477): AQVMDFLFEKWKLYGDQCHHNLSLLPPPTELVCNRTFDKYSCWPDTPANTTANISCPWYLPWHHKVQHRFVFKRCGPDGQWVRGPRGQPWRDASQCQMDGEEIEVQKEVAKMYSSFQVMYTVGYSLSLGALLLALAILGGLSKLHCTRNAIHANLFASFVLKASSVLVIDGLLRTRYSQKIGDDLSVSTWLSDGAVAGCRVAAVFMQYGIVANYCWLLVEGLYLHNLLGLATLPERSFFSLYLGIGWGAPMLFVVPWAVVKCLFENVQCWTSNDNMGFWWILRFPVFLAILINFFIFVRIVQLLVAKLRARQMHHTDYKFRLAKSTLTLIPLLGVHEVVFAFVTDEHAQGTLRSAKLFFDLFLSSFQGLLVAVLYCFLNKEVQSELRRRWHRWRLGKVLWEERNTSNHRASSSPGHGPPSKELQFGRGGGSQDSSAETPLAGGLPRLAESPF

The EC50 is the concentration that produces a half-maximal response. `CCCCCCCCCCCCCCCC(=O)N[C@@H](CCC(=O)NCCCC[C@H](NC(=O)[C@H](CC(=O)O)NC(=O)[C@H](CO)NC(=O)[C@@H](NC(=O)[C@H](Cc1ccccc1)NC(=O)[C@@H](NC(=O)CNC(=O)[C@H](CC(C)C)NC(=O)C(C)(C)NC(=O)[C@@H](N)Cc1c[nH]cn1)[C@@H](C)O)[C@@H](C)O)C(=O)N[C@@H](CO)C(=O)N[C@@H](CCCCN)C(=O)N[C@@H](Cc1ccc(O)cc1)C(=O)N[C@@H](CC(C)C)C(=O)N[C@@H](CCC(=O)O)C(=O)N[C@@H](CCC(=O)O)C(=O)N[C@@H](CCCNC(=N)N)C(=O)N[C@@H](C)C(=O)N[C@@H](C)C(=O)N[C@@H](CCC(N)=O)C(=O)N[C@@H](CCC(=O)O)C(=O)N[C@@H](Cc1ccccc1)C(=O)N[C@H](C(=O)N[C@@H](CCC(N)=O)C(=O)N[C@@H](Cc1c[nH]c2ccccc12)C(=O)N[C@@H](CC(C)C)C(=O)N[C@@H](CC(C)C)C(=O)N[C@@H](CCC(=O)O)C(=O)NCC(=O)NCC(=O)N1CCC[C@H]1C(=O)N[C@@H](CO)C(=O)N[C@@H](CO)C(=O)NCC(=O)N[C@@H](C)C(=O)N1CCC[C@H]1C(=O)N1CCC[C@H]1C(=O)N1CCC[C@H]1C(=O)N[C@@H](CO)C(N)=O)C(C)C)C(=O)O` [compound 32] (H-H[Aib]LGTFTSDK([γGlu-Palmitoyl])SKYLEERAAQEFVQWLLEGGPSSGAPPPS-NH2): the concentration giving a half-maximal response (EC50) at Glucagon Receptor on glucagon receptor (setting [1]) was “Not active”. The EC50 is 388 pM at GLP-1 receptor (setting [1]) and 730 pM on GIP receptor (setting [1]).

As to `CCCCCCCCCCCCCCCC(=O)N[C@@H](CCC(=O)NCCCC[C@H](NC(=O)[C@H](CC(=O)O)NC(=O)[C@H](CO)NC(=O)[C@@H](NC(=O)[C@H](Cc1ccccc1)NC(=O)[C@@H](NC(=O)CNC(=O)[C@H](CCO)NC(=O)C(C)(C)NC(=O)[C@@H](N)Cc1c[nH]cn1)[C@@H](C)O)[C@@H](C)O)C(=O)N[C@@H](CO)C(=O)N[C@@H](CCCCN)C(=O)N[C@@H](Cc1ccc(O)cc1)C(=O)N[C@@H](CC(C)C)C(=O)N[C@@H](CC(=O)O)C(=O)N[C@@H](CCC(=O)O)C(=O)N[C@@H](CCCNC(=N)N)C(=O)N[C@@H](C)C(=O)N[C@@H](C)C(=O)N[C@@H](CCC(N)=O)C(=O)N[C@@H](CC(=O)O)C(=O)N[C@@H](Cc1ccccc1)C(=O)N[C@H](C(=O)N[C@@H](CCC(N)=O)C(=O)N[C@@H](Cc1c[nH]c2ccccc12)C(=O)N[C@@H](CC(C)C)C(=O)N[C@@H](CC(C)C)C(=O)N[C@@H](CCC(=O)O)C(=O)NCC(=O)NCC(=O)N1CCC[C@H]1C(=O)N[C@@H](CO)C(=O)N[C@@H](CO)C(=O)NCC(=O)N[C@@H](C)C(=O)N1CCC[C@H]1C(=O)N1CCC[C@H]1C(=O)N1CCC[C@H]1C(=O)N[C@@H](CO)C(N)=O)C(C)C)C(=O)O` [compound 48] (H-H[Aib][hSer]GTFTSDK([γGlu-Palmitoyl])SKYLDERAAQDFVQWLLEGGPSSGAPPPS-NH2), the EC50 at glucagon receptor (setting [2]) is 16 pM; at GLP-1 receptor (setting [2]) it was 3 pM; at GIP receptor (setting [2]), 4 pM.

`CCCCCCCCCCCCCCCC(=O)N[C@@H](CCC(=O)NCCCC[C@H](NC(=O)[C@H](CC(=O)O)NC(=O)[C@H](CO)NC(=O)[C@@H](NC(=O)[C@H](Cc1ccccc1)NC(=O)[C@@H](NC(=O)CNC(=O)[C@H](CCC(N)=O)NC(=O)C(C)(C)NC(=O)[C@@H](N)Cc1c[nH]cn1)[C@@H](C)O)[C@@H](C)O)C(=O)N[C@@H](CO)C(=O)N[C@@H](CCCCN)C(=O)N[C@@H](Cc1ccc(O)cc1)C(=O)N[C@@H](CC(C)C)C(=O)N[C@@H](CC(=O)O)C(=O)N[C@@H](CCC(=O)O)C(=O)N[C@@H](CCCNC(=N)N)C(=O)N[C@@H](C)C(=O)N[C@@H](C)C(=O)N[C@@H](CCC(N)=O)C(=O)N[C@@H](CC(=O)O)C(=O)N[C@@H](Cc1ccccc1)C(=O)N[C@H](C(=O)N[C@@H](CCC(N)=O)C(=O)N[C@@H](Cc1c[nH]c2ccccc12)C(=O)N[C@@H](CC(C)C)C(=O)N[C@@H](CC(C)C)C(=O)N[C@@H](CC(=O)O)C(=O)N[C@@H](C)C(=O)NCC(=O)N1CCC[C@H]1C(=O)N[C@@H](CO)C(=O)N[C@@H](CO)C(=O)NCC(=O)N[C@@H](C)C(=O)N1CCC[C@H]1C(=O)N1CCC[C@H]1C(=O)N1CCC[C@H]1C(=O)N[C@@H](CO)C(N)=O)C(C)C)C(=O)O` [compound 64] (H-H[Aib]QGTFTSDK([γGlu-Palmitoyl])SKYLDERAAQDFVQWLLDAGPSSGAPPPS-NH2): the half-maximal effective concentration (EC50) at glucagon receptor (setting [3]) was determined as 2 pM; on GLP-1 receptor (setting [3]) it was 3 pM; on GIP receptor (setting [3]), 19 pM.

As to `CCCCCCCCCCCCCCCC(=O)N[C@@H](CCC(=O)NCCCC[C@H](NC(=O)[C@H](CC(=O)O)NC(=O)[C@H](CO)NC(=O)[C@@H](NC(=O)[C@H](Cc1ccccc1)NC(=O)[C@@H](NC(=O)CNC(=O)[C@H](CCSC)NC(=O)C(C)(C)NC(=O)[C@@H](N)Cc1c[nH]cn1)[C@@H](C)O)[C@@H](C)O)C(=O)N[C@@H](CO)C(=O)N[C@@H](CCCCN)C(=O)N[C@@H](Cc1ccc(O)cc1)C(=O)N[C@@H](CC(C)C)C(=O)N[C@@H](CCC(=O)O)C(=O)N[C@@H](CCC(=O)O)C(=O)N[C@@H](CCCNC(=N)N)C(=O)N[C@@H](C)C(=O)N[C@@H](C)C(=O)N[C@@H](CCC(N)=O)C(=O)N[C@@H](CCC(=O)O)C(=O)N[C@@H](Cc1ccccc1)C(=O)N[C@H](C(=O)N[C@@H](CCC(N)=O)C(=O)N[C@@H](Cc1c[nH]c2ccccc12)C(=O)N[C@@H](CC(C)C)C(=O)N[C@@H](CC(C)C)C(=O)N[C@@H](CCC(=O)O)C(=O)NCC(=O)NCC(=O)N1CCC[C@H]1C(=O)N[C@@H](CO)C(=O)N[C@@H](CO)C(=O)NCC(=O)N[C@@H](C)C(=O)N1CCC[C@H]1C(=O)N1CCC[C@H]1C(=O)N1CCC[C@H]1C(=O)N[C@@H](CO)C(N)=O)C(C)C)C(=O)O` [compound 31] (H-H[Aib]MGTFTSDK([γGlu-Palmitoyl])SKYLEERAAQEFVQWLLEGGPSSGAPPPS-NH2; N-terminus assumed), the EC50 on glucagon receptor (setting [1]) is 30 pM; at GLP-1 receptor (setting [1]), 2 pM; on GIP receptor (setting [1]), 5 pM.

Regarding `CCCCCCCCCCCCCCCC(=O)N[C@@H](CCC(=O)NCCCC[C@H](NC(=O)[C@H](CC(=O)O)NC(=O)[C@H](CO)NC(=O)[C@@H](NC(=O)[C@H](Cc1ccccc1)NC(=O)[C@@H](NC(=O)CNC(=O)[C@H](CCCC)NC(=O)C(C)(C)NC(=O)[C@@H](N)Cc1c[nH]cn1)[C@@H](C)O)[C@@H](C)O)C(=O)N[C@@H](CO)C(=O)N[C@@H](CCCCN)C(=O)N[C@@H](Cc1ccc(O)cc1)C(=O)N[C@@H](CC(C)C)C(=O)N[C@@H](CCC(=O)O)C(=O)N[C@@H](CCC(=O)O)C(=O)N[C@@H](CCCNC(=N)N)C(=O)N[C@@H](C)C(=O)N[C@@H](C)C(=O)N[C@@H](CCC(N)=O)C(=O)N[C@@H](CCC(=O)O)C(=O)N[C@@H](Cc1ccccc1)C(=O)N[C@H](C(=O)N[C@@H](CCC(N)=O)C(=O)N[C@@H](Cc1c[nH]c2ccccc12)C(=O)N[C@@H](CC(C)C)C(=O)N[C@@H](CC(C)C)C(=O)N[C@@H](CCC(=O)O)C(=O)NCC(=O)NCC(=O)N1CCC[C@H]1C(=O)N[C@@H](CO)C(=O)N[C@@H](CO)C(=O)NCC(=O)N[C@@H](C)C(=O)N1CCC[C@H]1C(=O)N1CCC[C@H]1C(=O)N1CCC[C@H]1C(=O)N[C@@H](CO)C(N)=O)C(C)C)C(=O)O` [compound 40] (H-H[Aib][Nle]GTFTSDK([γGlu-Palmitoyl])SKYLEERAAQEFVQWLLEGGPSSGAPPPS-NH2; N-terminus assumed), the figures for the concentration for a half-maximal effect (EC50) on glucagon receptor (setting [1]), at GLP-1 receptor (setting [1]) and at GIP receptor (setting [1]) were 68 pM, 2 pM and 4 pM, respectively.
